Reference: PMC5218480 (PLoS ONE, 2017)

System: MV-4-11 cells
Assay: Gene expression microarray analysis (Affymetrix PrimeView) and GSEA
Type: cell-based, human
Design: RFU PODN (11730768_x_at) / Fold change /veh PODN (11730768_x_at) / RFU LINC00158 (11744669_a_at) / Fold change /veh LINC00158 (11744669_a_at) / RFU DUSP10 (11751237_a_at) / Fold change /veh DUSP10 (11751237_a_at) / RFU ID3 (11757404_x_at) / Fold change /veh ID3 (11757404_x_at) / RFU PLEKHG5 (11737974_s_at) / Fold change /veh PLEKHG5 (11737974_s_at) / RFU LRRC4B (11730491_at) / Fold change /veh LRRC4B (11730491_at) / RFU GIMAP4 (11747438_a_at) / Fold change /veh GIMAP4 (11747438_a_at) / RFU KRT8 (11758183_x_at) / Fold change /veh KRT8 (11758183_x_at) / RFU CNN1 (11734310_a_at) / Fold change /veh CNN1 (11734310_a_at) / RFU VPS37D (11726825_at) / Fold change /veh VPS37D (11726825_at) / RFU C10orf10 (11716522_x_at) / Fold change /veh C10orf10 (11716522_x_at) / RFU KIR2DL2 /// KIR2DL4 /// KIR2DL5A /// KIR2DL5B /// KIR2DS1 /// KIR2DS2 /// KIR2DS3 /// KIR2DS4 /// KIR3DL3 /// KIR3DL3 /// KIR3DS1 (11738374_at) / Fold change /veh KIR2DL2 /// KIR2DL4 /// KIR2DL5A /// KIR2DL5B /// KIR2DS1 /// KIR2DS2 /// KIR2DS3 /// KIR2DS4 /// KIR3DL3 /// KIR3DL3 /// KIR3DS1 (11738374_at) / RFU C1QL1 (11718748_at) / Fold change /veh C1QL1 (11718748_at) / RFU TMPRSS4 (11747572_a_at) / Fold change /veh TMPRSS4 (11747572_a_at) / RFU HAMP (11756126_x_at) / Fold change /veh HAMP (11756126_x_at) / RFU RNFT2 (11725882_a_at) / Fold change /veh RNFT2 (11725882_a_at) / RFU NR4A2 (11747474_a_at) / Fold change /veh NR4A2 (11747474_a_at) / RFU ABCC12 (11746883_a_at) / Fold change /veh ABCC12 (11746883_a_at) / RFU TMEM136 (11760407_x_at) / Fold change /veh TMEM136 (11760407_x_at) / RFU CLDN22 /// WWC2 (11732394_at) / Fold change /veh CLDN22 /// WWC2 (11732394_at) / RFU HLA-DPB1 (11760878_x_at) / Fold change /veh HLA-DPB1 (11760878_x_at) / RFU SPINT1 (11716480_a_at) / Fold change /veh SPINT1 (11716480_a_at) / RFU GAP43 (11754022_s_at) / Fold change /veh GAP43 (11754022_s_at) / RFU A4GNT (11735810_at) / Fold change /veh A4GNT (11735810_at) / RFU PRB3 (11715151_x_at) / Fold change /veh PRB3 (11715151_x_at) / RFU TUBB4B (11761932_at) / Fold change /veh TUBB4B (11761932_at) / RFU CAPN14 (11732068_a_at) / Fold change /veh CAPN14 (11732068_a_at) / RFU TMCC2 (11721928_a_at) / Fold change /veh TMCC2 (11721928_a_at) / RFU IRGQ (11745062_a_at) / Fold change /veh IRGQ (11745062_a_at) / RFU FAM174B (11720279_a_at) / Fold change /veh FAM174B (11720279_a_at) / RFU TMPRSS4 (11748680_a_at) / Fold change /veh TMPRSS4 (11748680_a_at) / RFU FAM212B (11763350_a_at) / Fold change /veh FAM212B (11763350_a_at) / RFU PLEKHG5 (11743358_a_at) / Fold change /veh PLEKHG5 (11743358_a_at) / RFU ZSCAN30 (11745921_a_at) / Fold change /veh ZSCAN30 (11745921_a_at) / RFU CMKLR1 (11741424_a_at) / Fold change /veh CMKLR1 (11741424_a_at) / RFU LOC101060620 /// MAPK8IP1 (11723275_at) / Fold change /veh LOC101060620 /// MAPK8IP1 (11723275_at) / RFU SPTSSB (11747773_x_at) / Fold change /veh SPTSSB (11747773_x_at) / RFU PRSS12 (11739890_at) / Fold change /veh PRSS12 (11739890_at) / RFU BIN1 (11741810_x_at) / Fold change /veh BIN1 (11741810_x_at) / RFU WNT11 (11732464_a_at) / Fold change /veh WNT11 (11732464_a_at) / RFU C10orf10 (11716521_a_at) / Fold change /veh C10orf10 (11716521_a_at) / RFU C5orf56 (11738089_at) / Fold change /veh C5orf56 (11738089_at) / RFU CYB561 (11721691_x_at) / Fold change /veh CYB561 (11721691_x_at) / RFU ANKRD19P (11752326_a_at) / Fold change /veh ANKRD19P (11752326_a_at) / RFU OR2T12 /// OR2T33 /// OR2T8 (11738714_s_at) / Fold change /veh OR2T12 /// OR2T33 /// OR2T8 (11738714_s_at) / RFU VCAN (11748164_a_at) / Fold change /veh VCAN (11748164_a_at) / RFU JSRP1 (11732532_at) / Fold change /veh JSRP1 (11732532_at) / RFU KRTAP10-11 (11738290_x_at) / Fold change /veh KRTAP10-11 (11738290_x_at) / RFU MYO3A (11730013_a_at) / Fold change /veh MYO3A (11730013_a_at) / RFU EBF3 (11725865_a_at) / Fold change /veh EBF3 (11725865_a_at) / RFU CAMK2N1 (11719241_x_at) / Fold change /veh CAMK2N1 (11719241_x_at) / RFU C5orf56 (11738088_a_at) / Fold change /veh C5orf56 (11738088_a_at) / RFU OLFML3 (11715873_a_at) / Fold change /veh OLFML3 (11715873_a_at) / RFU LOC100653217 /// NTM (11731650_a_at) / Fold change /veh LOC100653217 /// NTM (11731650_a_at) / RFU MAPK11 (11762145_a_at) / Fold change /veh MAPK11 (11762145_a_at) / RFU FIZ1 (11724087_x_at) / Fold change /veh FIZ1 (11724087_x_at) / RFU OASL (11726364_x_at) / Fold change /veh OASL (11726364_x_at) / RFU SOX15 (11748057_x_at) / Fold change /veh SOX15 (11748057_x_at) / RFU CD79A (11719716_a_at) / Fold change /veh CD79A (11719716_a_at) / RFU HIST1H1D (11736915_at) / Fold change /veh HIST1H1D (11736915_at) / RFU CASKIN2 (11723855_a_at) / Fold change /veh CASKIN2 (11723855_a_at) / RFU LOC730098 (11760151_x_at) / Fold change /veh LOC730098 (11760151_x_at) / RFU OR4N2 (11742367_at) / Fold change /veh OR4N2 (11742367_at) / RFU PRRT2 (11749266_a_at) / Fold change /veh PRRT2 (11749266_a_at) / RFU SNX32 (11753110_a_at) / Fold change /veh SNX32 (11753110_a_at) / RFU CDHR5 (11726645_a_at) / Fold change /veh CDHR5 (11726645_a_at) / RFU RCAN1 (11760418_a_at) / Fold change /veh RCAN1 (11760418_a_at) / RFU FAM167A (11723789_a_at) / Fold change /veh FAM167A (11723789_a_at) / RFU FAM26E (11764081_at) / Fold change /veh FAM26E (11764081_at) / RFU ISYNA1 (11749810_s_at) / Fold change /veh ISYNA1 (11749810_s_at) / RFU ACY1 (11761880_at) / Fold change /veh ACY1 (11761880_at) / RFU 11764098_at / Fold change /veh 11764098_at / RFU SAMD14 (11745864_x_at) / Fold change /veh SAMD14 (11745864_x_at) / RFU NPB (11741838_a_at) / Fold change /veh NPB (11741838_a_at) / RFU TMPRSS6 (11731388_a_at) / Fold change /veh TMPRSS6 (11731388_a_at) / RFU KRTAP10-2 (11738614_at) / Fold change /veh KRTAP10-2 (11738614_at) / RFU ARHGAP8 /// PRR5-ARHGAP8 (11727945_x_at) / Fold change /veh ARHGAP8 /// PRR5-ARHGAP8 (11727945_x_at) / RFU KRTAP5-7 /// NADSYN1 (11734609_at) / Fold change /veh KRTAP5-7 /// NADSYN1 (11734609_at) / RFU RASL12 (11751679_a_at) / Fold change /veh RASL12 (11751679_a_at) / RFU CDKN2B (11736163_a_at) / Fold change /veh CDKN2B (11736163_a_at) / RFU PRF1 (11729649_at) / Fold change /veh PRF1 (11729649_at) / RFU, ZNF638 /// ZNF638-IT1 / Fold change vs veh, ZNF638 /// ZNF638-IT1 / RFU, PANK3 / Fold change vs veh, PANK3 / RFU, SH3YL1 / Fold change vs veh, SH3YL1 / RFU, ZEB2 / Fold change vs veh, ZEB2 / RFU, NRIP1 / Fold change vs veh, NRIP1 / RFU, PTTG1IP / Fold change vs veh, PTTG1IP / RFU, CAPN2 / Fold change vs veh, CAPN2 / RFU, MED14 / Fold change vs veh, MED14 / RFU, SNORA58 / Fold change vs veh, SNORA58 / RFU, C1orf63 / Fold change vs veh, C1orf63 / RFU, LRRFIP1 / Fold change vs veh, LRRFIP1 / RFU, NDUFAF7 / Fold change vs veh, NDUFAF7 / RFU, SLC12A2 / Fold change vs veh, SLC12A2 / RFU, IBTK / Fold change vs veh, IBTK / RFU, ESF1 / Fold change vs veh, ESF1 / Fold change vs veh, TMEM50B / RFU, TAOK1 / Fold change vs veh, TAOK1 / RFU, ACBD3 / Fold change vs veh, ACBD3 / RFU, TMA16 / Fold change vs veh, TMA16 / RFU, RWDD3 / Fold change vs veh, RWDD3 / RFU, BCAT1 / Fold change vs veh, BCAT1 / RFU, EDEM3 / Fold change vs veh, EDEM3 / RFU, TMEM33 / Fold change vs veh, TMEM33 / RFU, WDR75 / Fold change vs veh, WDR75 / RFU, AHCTF1 / Fold change vs veh, AHCTF1 / RFU, TFRC / Fold change vs veh, TFRC / RFU, ZDHHC17 / Fold change vs veh, ZDHHC17 / RFU, NOM1 / Fold change vs veh, NOM1 / RFU, ARL8B / Fold change vs veh, ARL8B / RFU, ZBTB11 / Fold change vs veh, ZBTB11 / RFU, TAMM41 / Fold change vs veh, TAMM41 / RFU, KIAA1704 /// LOC100996395 / Fold change vs veh, KIAA1704 /// LOC100996395 / RFU, ING1 / Fold change vs veh, ING1 / RFU, TRMT61B / Fold change vs veh, TRMT61B / RFU, FUBP3 / Fold change vs veh, FUBP3 / RFU, TP53 / Fold change vs veh, TP53 / RFU, TNKS2 / Fold change vs veh, TNKS2 / RFU, ZFP14 / Fold change vs veh, ZFP14 / RFU, ACTR2 / Fold change vs veh, ACTR2 / RFU, PPP3R1 / Fold change vs veh, PPP3R1 / RFU, PIK3R1 / Fold change vs veh, PIK3R1 / RFU, HNRNPA1 / Fold change vs veh, HNRNPA1 / RFU, RNF170 / Fold change vs veh, RNF170 / RFU, ZNF28 / Fold change vs veh, ZNF28 / RFU, RNGTT / Fold change vs veh, RNGTT / RFU, OGT / Fold change vs veh, OGT / RFU, BRD1 / Fold change vs veh, BRD1 / RFU, MARS / Fold change vs veh, MARS / RFU, ZNF655 / Fold change vs veh, ZNF655 / RFU, FAHD1 / Fold change vs veh, FAHD1 / RFU, BDP1 / Fold change vs veh, BDP1 / RFU, LRRCC1 / Fold change vs veh, LRRCC1 / RFU, ARID1A / Fold change vs veh, ARID1A / RFU, ZNF146 / Fold change vs veh, ZNF146 / RFU, ZNF330 / Fold change vs veh, ZNF330 / RFU, GPN3 / Fold change vs veh, GPN3 / RFU, C9orf123 / Fold change vs veh, C9orf123 / RFU, N4BP2L2 / Fold change vs veh, N4BP2L2 / RFU, ARFIP1 / Fold change vs veh, ARFIP1 / RFU, FAM179B / Fold change vs veh, FAM179B / RFU, BCL10 / Fold change vs veh, BCL10 / RFU, UHRF1BP1L / Fold change vs veh, UHRF1BP1L / RFU, BET1 / Fold change vs veh, BET1 / RFU, CNOT2 / Fold change vs veh, CNOT2 / RFU, ZNF268 / Fold change vs veh, ZNF268 / Fold change vs veh, ZNF507 / RFU, DGCR2 / Fold change vs veh, DGCR2 / RFU, WDSUB1 / Fold change vs veh, WDSUB1 / Fold change vs veh, HSP90B1 /// MIR3652 / RFU, ADSS / Fold change vs veh, ADSS / RFU, GK / Fold change vs veh, GK / RFU, ZNF148 / Fold change vs veh, ZNF148 / RFU, TAF9 / Fold change vs veh, TAF9 / RFU, SLC1A5 / Fold change vs veh, SLC1A5 / RFU, SLMO2 / Fold change vs veh, SLMO2 / RFU, ABCC4 / Fold change vs veh, ABCC4 / RFU, LOC101060439 /// RAP1B / Fold change vs veh, LOC101060439 /// RAP1B / RFU, RFX7 / Fold change vs veh, RFX7 / RFU, GTPBP10 / Fold change vs veh, GTPBP10 / RFU, CNEP1R1 / Fold change vs veh, CNEP1R1 / RFU, BIVM-ERCC5 /// ERCC5 / Fold change vs veh, BIVM-ERCC5 /// ERCC5 / RFU, ILF3 / Fold change vs veh, ILF3 / RFU 11762660_at / Fold change /veh 11762660_at / RFU VCAN (11757783_s_at) / Fold change /veh VCAN (11757783_s_at) / RFU DDX43 (11728927_at) / Fold change /veh DDX43 (11728927_at) / RFU KRT8 (11758188_x_at) / Fold change /veh KRT8 (11758188_x_at) / RFU NKD1 (11759106_at) / Fold change /veh NKD1 (11759106_at) / RFU SRD5A1 (11742802_a_at) / Fold change /veh SRD5A1 (11742802_a_at) / RFU TPSAB1 /// TPSB2 (11721975_s_at) / Fold change /veh TPSAB1 /// TPSB2 (11721975_s_at) / RFU GSTM3 (11746129_a_at) / Fold change /veh GSTM3 (11746129_a_at) / RFU IL23R (11737362_x_at) / Fold change /veh IL23R (11737362_x_at) / RFU TMEM51 (11727254_a_at) / Fold change /veh TMEM51 (11727254_a_at) / RFU PIWIL2 (11732686_x_at) / Fold change /veh PIWIL2 (11732686_x_at) / RFU ORM1 (11744905_x_at) / Fold change /veh ORM1 (11744905_x_at) / RFU CCDC152 (11743942_at) / Fold change /veh CCDC152 (11743942_at) / RFU ECM1 (11717891_a_at) / Fold change /veh ECM1 (11717891_a_at) / RFU IL23R (11748794_a_at) / Fold change /veh IL23R (11748794_a_at) / RFU TNFAIP8L3 (11732012_x_at) / Fold change /veh TNFAIP8L3 (11732012_x_at) / RFU MBOAT4 (11741988_at) / Fold change /veh MBOAT4 (11741988_at) / RFU 11764193_at / Fold change /veh 11764193_at / RFU TMEM53 (11763286_at) / Fold change /veh TMEM53 (11763286_at) / RFU MAGEB2 (11727129_at) / Fold change /veh MAGEB2 (11727129_at) / RFU TMEM200A (11744735_a_at) / Fold change /veh TMEM200A (11744735_a_at) / RFU CCDC152 (11751479_a_at) / Fold change /veh CCDC152 (11751479_a_at) / RFU FAM211A (11726209_a_at) / Fold change /veh FAM211A (11726209_a_at) / RFU RGS16 (11746705_a_at) / Fold change /veh RGS16 (11746705_a_at) / RFU VCAN (11755009_s_at) / Fold change /veh VCAN (11755009_s_at) / RFU RHOB (11743442_s_at) / Fold change /veh RHOB (11743442_s_at) / RFU RGS16 (11720943_a_at) / Fold change /veh RGS16 (11720943_a_at) / RFU RGS16 (11720944_at) / Fold change /veh RGS16 (11720944_at) / RFU, VPS4B / Fold change vs veh, VPS4B / RFU, CREB1 / Fold change vs veh, CREB1 / RFU, DNAJC13 / Fold change vs veh, DNAJC13 / RFU, GNAQ / Fold change vs veh, GNAQ / RFU, CDK5R1 / Fold change vs veh, CDK5R1 / RFU, ZRANB3 / Fold change vs veh, ZRANB3 / RFU, CUL4A / Fold change vs veh, CUL4A / RFU, CCNY / Fold change vs veh, CCNY / RFU, UFL1 / Fold change vs veh, UFL1 / RFU, COG3 / Fold change vs veh, COG3 / RFU, DIAPH2 / Fold change vs veh, DIAPH2 / RFU, SKA2 / Fold change vs veh, SKA2 / RFU, AFF3 / Fold change vs veh, AFF3 / RFU, LMF1 / Fold change vs veh, LMF1 / RFU, IPO11 / Fold change vs veh, IPO11 / RFU, DFFB / Fold change vs veh, DFFB / RFU, FOXP1 / Fold change vs veh, FOXP1 / RFU, CARD8 / Fold change vs veh, CARD8 / RFU, STRN3 / Fold change vs veh, STRN3 / RFU, ADK / Fold change vs veh, ADK / RFU, RASSF2 / Fold change vs veh, RASSF2 / RFU, WIPF1 / Fold change vs veh, WIPF1 / RFU, LARP1B / Fold change vs veh, LARP1B / RFU, RASA1 / Fold change vs veh, RASA1 / RFU, RB1 / Fold change vs veh, RB1 / RFU, PPFIA1 / Fold change vs veh, PPFIA1 / RFU, MAT2A / Fold change vs veh, MAT2A / RFU, CCT5 / Fold change vs veh, CCT5 / RFU, WDR92 / Fold change vs veh, WDR92 / RFU, CUX1 / Fold change vs veh, CUX1 / RFU, TTC7A / Fold change vs veh, TTC7A / RFU, TMEM135 / Fold change vs veh, TMEM135 / RFU, DEPTOR / Fold change vs veh, DEPTOR / RFU, CPM / Fold change vs veh, CPM / RFU, DNAJB6 / Fold change vs veh, DNAJB6 / RFU, CACNA2D3 / Fold change vs veh, CACNA2D3 / RFU, DTX4 / Fold change vs veh, DTX4 / RFU, TFCP2 / Fold change vs veh, TFCP2 / RFU, GMCL1 /// GMCL1P1 / Fold change vs veh, GMCL1 /// GMCL1P1 / RFU, AEBP2 / Fold change vs veh, AEBP2 / RFU, SNHG1 /// SNORD22 /// SNORD25 /// SNORD26 /// SNORD27 /// SNORD28 /// SNORD29 /// SNORD31 / Fold change vs veh, SNHG1 /// SNORD22 /// SNORD25 /// SNORD26 /// SNORD27 /// SNORD28 /// SNORD29 /// SNORD31 / Fold change (Aza/veh), C12orf56 (ProbeSet 11735607_a_at) / Fold change (ACY-1035/veh), C12orf56 (ProbeSet 11735607_a_at) / Fold change (Aza/veh), FGFR1OP (ProbeSet 11751329_s_at) / Fold change (ACY-1035/veh), FGFR1OP (ProbeSet 11751329_s_at) / Fold change (Aza/veh), VPS36 (ProbeSet 11739960_a_at) / Fold change (ACY-1035/veh), VPS36 (ProbeSet 11739960_a_at) / RFU SYPL1 (11715823_x_at) / Fold change /veh SYPL1 (11715823_x_at) / RFU IGFBP7 (11715501_s_at) / Fold change /veh IGFBP7 (11715501_s_at) / RFU REEP3 (11722064_at) / Fold change /veh REEP3 (11722064_at) / RFU IGLL1 (11728026_x_at) / Fold change /veh IGLL1 (11728026_x_at): dose or concentration left out as unconfirmed
Conditions: MV-4-11 cells, 48 hours

SMILES: Nc1ccc(-c2cccs2)cc1NC(=O)c1ccc2c(c1)cc(C1CC1)n2CCN1CCOCC1 [ACY-1035]
- Fold change /veh TMPRSS6 (11731388_a_at): 1.10
